Columns and labels:
[1] = target: AR in stickleback kidney cytosolic fraction; experiment: Saturation and Scatchard analysis, kidney cytosolic fraction; assay type: binding, three-spined stickleback (Gasterosteus aculeatus); conditions: overnight 4°C
Method: Aliquots (250 μl) of the nuclear or cytosolic preparations were added to each tube, the tubes were vortexed and incubated over night at 4°C. To stop the binding reaction, 250 μl DCC was added to each tube. The tubes were vortexed and the suspensions were incubated for 5 min at 4°C, before spinning at 3,000 × g at 4°C for 5 min. The supernatants were decanted into 7 ml scintillation vials, 5 ml of standard scintillation cocktail was added and the radioactivity in each sample was measured in a liquid scintillation counter (Beckman LS 6000SC, Beckman Instruments, Fullerton, CA). The procedure used for the expressed recombinant ARβ2 was modified as follows. […] The expressed proteins were diluted 1:100 and aliquots (100 μl) were added to each reaction tube. The tubes were vortexed and incubated over night at 4°C. To stop the binding reaction, 200 μl DCC was added to each tube. The tubes were vortexed and the suspension were incubated for 5 min at 4°C, before spinning at 3,000 × g at 4°C for 5 min. 250 μl of the supernatant was transferred into 5 ml scintillation vials and 4 ml of standard scintillation cocktail was added before the radioactivity in each sample was measured in a liquid scintillation counter (Wallac 1409, Wallac Oy, Turku, Finland).

[2] = tested on: AR in three-spined stickleback kidney cytosolic extracts; conditions: 4°C
Method: The reaction was terminated at different time-points ranging between 1 min and 24 h. The specific binding at each time-point was determined as described above.

[3] = target: recombinant stickleback ARβ2 (Gasterosteus aculeatus, UniProt Q801Z2); conditions: recombinant ARβ2, reticulocyte extract
Method: The excised AR pBK CMV clones were digested with XbaI and EcoRI and the inserts were gel purified prior to ligation into the pCMV-TNT vector (Promega) between XbaI and EcoRI. […] AR was expressed by introducing the pCMV-TNT into the TNT coupled reticulocyte lysate system (Promega) according to the manufacturer's instructions. The size of the expressed products was determined by addition of S^35-methionin to the reticulocyte lysate system. The obtained protein suspension was analyzed on a denaturing 8% SDS PAGE and the sizes were determined using prestained SDS-PAGE broad range protein molecular weight standard (Bio-Rad) and a control luciferase protein of 62 kDa included in the reticulocyte lysate system (Promega). […]
Aliquots (250 μl) of the nuclear or cytosolic preparations were added to each tube, the tubes were vortexed and incubated over night at 4°C. […] The supernatants were decanted into 7 ml scintillation vials, 5 ml of standard scintillation cocktail was added and the radioactivity in each sample was measured in a liquid scintillation counter (Beckman LS 6000SC, Beckman Instruments, Fullerton, CA). […] 250 μl of the supernatant was transferred into 5 ml scintillation vials and 4 ml of standard scintillation cocktail was added before the radioactivity in each sample was measured in a liquid scintillation counter (Wallac 1409, Wallac Oy, Turku, Finland).

Sequence of recombinant stickleback ARβ2 (Q801Z2 1-735): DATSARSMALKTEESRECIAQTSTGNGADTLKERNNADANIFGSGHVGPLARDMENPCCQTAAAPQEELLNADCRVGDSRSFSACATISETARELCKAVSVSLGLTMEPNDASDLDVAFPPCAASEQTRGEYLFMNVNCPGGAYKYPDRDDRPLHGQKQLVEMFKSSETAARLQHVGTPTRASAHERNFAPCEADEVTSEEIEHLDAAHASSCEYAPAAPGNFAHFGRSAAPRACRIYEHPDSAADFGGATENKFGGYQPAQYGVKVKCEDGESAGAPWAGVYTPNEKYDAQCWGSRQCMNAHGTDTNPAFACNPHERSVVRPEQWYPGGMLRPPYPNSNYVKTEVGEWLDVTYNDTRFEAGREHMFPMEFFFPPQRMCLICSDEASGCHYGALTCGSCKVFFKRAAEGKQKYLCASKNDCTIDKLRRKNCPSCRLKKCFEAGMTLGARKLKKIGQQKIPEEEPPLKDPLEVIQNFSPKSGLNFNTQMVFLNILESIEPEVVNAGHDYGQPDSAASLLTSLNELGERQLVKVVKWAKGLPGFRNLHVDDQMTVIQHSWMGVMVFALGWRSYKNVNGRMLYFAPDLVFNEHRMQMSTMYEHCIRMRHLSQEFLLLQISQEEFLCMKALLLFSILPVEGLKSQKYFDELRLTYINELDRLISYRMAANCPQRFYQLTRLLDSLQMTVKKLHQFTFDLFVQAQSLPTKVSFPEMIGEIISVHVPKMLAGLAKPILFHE

Compound: C[C@]12CCC(=O)C[C@@H]1CC[C@@H]1[C@@H]2CC[C@]2(C)[C@@H](O)CC[C@@H]12 [[^3H]-DHT]
- Kd [1]: 18.7 ± 3.21 nM
- association t1/2 ([2]; 4 nM tracer): 3.3 min
- time to reach binding equilibrium ([2]; 4 nM tracer): 20 min
- dissociation t1/2 ([2]; 100-fold excess unlabelled DHT): 80 min
- time to complete dissociation ([2]; 100-fold excess unlabelled DHT): ≤ 8 h
- Bmax [3]: 0.324 ± 0.04 pmol/mg protein

Reference: paper PMC1192819, “Molecular cloning and characterization of a nuclear androgen receptor activated by 11-ketotestosterone” (Reproductive biology and endocrinology : RB&E, 2005)
